Experiments:
[1] = molecular target: T1, Adrenergic receptor alpha-1 (Rattus norvegicus, UniProt P15823+P23944+P43140); assay: Compound was tested for inhibition of [3H]WB-4101 against Alpha-1 adrenergic receptor from rat whole brain membranes using in vitro adrenergic receptor binding assay.; type: cell membranes, Membrane
T1 sequence (P15823 whole entry): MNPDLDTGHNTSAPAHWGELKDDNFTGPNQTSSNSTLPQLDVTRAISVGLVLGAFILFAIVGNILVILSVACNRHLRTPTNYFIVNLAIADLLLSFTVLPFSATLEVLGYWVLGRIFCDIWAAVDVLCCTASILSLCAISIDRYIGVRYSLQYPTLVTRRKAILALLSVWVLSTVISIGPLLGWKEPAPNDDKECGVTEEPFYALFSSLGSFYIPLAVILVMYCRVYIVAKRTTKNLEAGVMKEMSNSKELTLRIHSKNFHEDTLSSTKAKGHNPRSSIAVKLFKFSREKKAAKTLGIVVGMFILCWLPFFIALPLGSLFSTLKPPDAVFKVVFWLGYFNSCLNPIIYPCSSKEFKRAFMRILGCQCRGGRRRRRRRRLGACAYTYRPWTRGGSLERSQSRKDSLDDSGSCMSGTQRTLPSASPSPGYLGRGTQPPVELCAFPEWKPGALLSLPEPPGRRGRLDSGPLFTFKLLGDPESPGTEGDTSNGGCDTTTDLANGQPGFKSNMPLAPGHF
T1 sequence (P23944 whole entry): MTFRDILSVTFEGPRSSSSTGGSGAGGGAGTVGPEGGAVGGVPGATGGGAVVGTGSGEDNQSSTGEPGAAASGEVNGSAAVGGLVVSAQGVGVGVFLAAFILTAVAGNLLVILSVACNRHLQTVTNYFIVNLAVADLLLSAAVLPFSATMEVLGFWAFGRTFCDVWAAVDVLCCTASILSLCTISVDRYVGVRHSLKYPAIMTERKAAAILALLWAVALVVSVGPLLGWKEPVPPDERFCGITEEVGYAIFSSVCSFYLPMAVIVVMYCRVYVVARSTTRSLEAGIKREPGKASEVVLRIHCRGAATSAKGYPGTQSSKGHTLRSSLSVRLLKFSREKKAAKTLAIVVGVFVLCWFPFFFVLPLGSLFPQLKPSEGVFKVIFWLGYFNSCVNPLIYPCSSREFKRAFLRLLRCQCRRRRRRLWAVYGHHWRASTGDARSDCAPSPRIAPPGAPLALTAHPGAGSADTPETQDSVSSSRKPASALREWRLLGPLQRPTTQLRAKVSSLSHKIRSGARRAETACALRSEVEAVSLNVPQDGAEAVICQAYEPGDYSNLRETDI
T1 sequence (P43140 whole entry): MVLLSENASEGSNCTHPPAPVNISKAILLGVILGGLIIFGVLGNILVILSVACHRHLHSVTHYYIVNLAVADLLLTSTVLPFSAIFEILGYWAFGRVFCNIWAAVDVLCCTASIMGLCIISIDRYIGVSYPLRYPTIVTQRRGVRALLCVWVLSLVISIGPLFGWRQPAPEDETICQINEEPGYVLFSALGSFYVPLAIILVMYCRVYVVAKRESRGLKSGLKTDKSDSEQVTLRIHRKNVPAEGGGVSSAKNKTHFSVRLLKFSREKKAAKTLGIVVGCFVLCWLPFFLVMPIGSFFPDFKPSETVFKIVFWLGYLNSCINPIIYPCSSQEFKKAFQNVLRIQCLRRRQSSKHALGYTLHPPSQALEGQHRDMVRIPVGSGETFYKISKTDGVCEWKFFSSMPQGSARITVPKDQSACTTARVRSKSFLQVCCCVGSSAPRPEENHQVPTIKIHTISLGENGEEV

[2] = molecular target: T2, Adrenergic receptor alpha-2 (Rattus norvegicus, UniProt P22086+P19328+P22909); assay: Compound was tested for inhibition of [3H]yohimbine against Alpha-2 adrenergic receptor from rat cortical membranes using in vitro adrenergic receptor binding assay.; type: cell membranes, Membrane
T2 sequence (P22086 whole entry): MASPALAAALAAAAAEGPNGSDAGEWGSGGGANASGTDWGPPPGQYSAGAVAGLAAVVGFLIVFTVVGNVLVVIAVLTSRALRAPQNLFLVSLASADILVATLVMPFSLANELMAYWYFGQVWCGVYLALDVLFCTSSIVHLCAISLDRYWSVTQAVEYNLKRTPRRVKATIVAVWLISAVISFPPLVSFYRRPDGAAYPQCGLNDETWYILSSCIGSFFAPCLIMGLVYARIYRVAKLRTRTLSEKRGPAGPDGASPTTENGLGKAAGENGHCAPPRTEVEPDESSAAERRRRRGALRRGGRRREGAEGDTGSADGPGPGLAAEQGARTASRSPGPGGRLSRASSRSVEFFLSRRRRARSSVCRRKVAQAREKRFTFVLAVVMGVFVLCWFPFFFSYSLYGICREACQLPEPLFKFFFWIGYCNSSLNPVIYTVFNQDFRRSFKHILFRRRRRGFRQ
T2 sequence (P19328 whole entry): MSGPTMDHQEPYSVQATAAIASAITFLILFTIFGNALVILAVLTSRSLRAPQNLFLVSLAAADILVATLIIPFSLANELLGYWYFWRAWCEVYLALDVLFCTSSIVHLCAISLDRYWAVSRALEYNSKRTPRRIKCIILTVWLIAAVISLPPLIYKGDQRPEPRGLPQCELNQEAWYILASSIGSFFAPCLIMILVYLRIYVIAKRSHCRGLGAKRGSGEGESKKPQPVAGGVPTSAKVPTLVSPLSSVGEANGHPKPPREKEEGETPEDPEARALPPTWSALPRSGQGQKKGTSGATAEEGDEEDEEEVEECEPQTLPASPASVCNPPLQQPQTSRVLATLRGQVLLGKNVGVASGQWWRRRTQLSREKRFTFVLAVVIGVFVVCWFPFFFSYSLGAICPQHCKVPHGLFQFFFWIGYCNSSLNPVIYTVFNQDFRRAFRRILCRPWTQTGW
T2 sequence (P22909 whole entry): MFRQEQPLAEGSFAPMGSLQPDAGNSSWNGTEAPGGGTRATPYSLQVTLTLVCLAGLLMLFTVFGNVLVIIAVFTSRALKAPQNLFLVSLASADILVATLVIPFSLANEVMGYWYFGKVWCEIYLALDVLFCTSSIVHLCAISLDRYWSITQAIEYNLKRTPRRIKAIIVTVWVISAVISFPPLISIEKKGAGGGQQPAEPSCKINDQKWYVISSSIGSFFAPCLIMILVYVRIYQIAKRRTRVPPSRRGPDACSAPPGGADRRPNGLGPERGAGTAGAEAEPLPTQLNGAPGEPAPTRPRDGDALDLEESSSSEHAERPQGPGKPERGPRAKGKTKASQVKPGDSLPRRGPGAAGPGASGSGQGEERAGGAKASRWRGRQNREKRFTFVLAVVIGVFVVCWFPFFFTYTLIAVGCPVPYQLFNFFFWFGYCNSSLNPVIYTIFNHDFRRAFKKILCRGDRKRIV

Mus musculus = assay: Evaluated for the prevention of TBZ ptosis by intraperitoneal administration in mice; type: functional; settings: ip
[3] = molecular target: Muscarinic acetylcholine receptor; assay: Inhibition of radioligand [3H]QNB binding (competitive inhibition) to muscarinic acetylcholine receptor in the rat forebrain in the absence of zinc
Rattus norvegicus = species: Rattus norvegicus; assay: Compound was tested for inhibition of [3H]dopamine against rat striatum using in vitro biogenic amine uptake assay using rat brain synaptosomes.; type: functional

C=Cc1cccn1N(C)c1ccncc1
IC50 [1]: 5.9 µM | IC50 [2]: 0.95 µM | ED50 (Mus musculus): 8.3 mg/kg | IC50 [3]: 8.8 µM | IC50 (Rattus norvegicus): > 20 µM

Reference: ChEMBL document CHEMBL1129671, “Substituted (pyrroloamino)pyridines: potential agents for the treatment of Alzheimer's disease” (J Med Chem, 1996)
